In the NIST ThermoML archive (doi:10.1016/j.jct.2014.02.019):

What was measured:
[1] = 101 kPa, Liquid; for viscosity: Capillary tube (Ostwald / Ubbelohde) method; for mass density: Vibrating tube method
[2] = wn = mass fraction of the nth substance listed; settings: 101 kPa, Liquid; for viscosity: Capillary tube (Ostwald / Ubbelohde) method; for mass density: Vibrating tube method

CC#N [acetonitrile]
[1]
Settings | mass density [kg/m3] | viscosity [mPa·s]
298.15 K | 776.47 | 0.342
303.15 K | 771.56 | 0.3269
308.15 K | 765.26 | 0.3092
313.15 K | 759.55 | 0.2929

CC#N [acetonitrile] + CN(C)C=O
[2]
Settings | mass density, 298.15 K [kg/m3] | mass density, 303.15 K [kg/m3] | mass density, 308.15 K [kg/m3] | mass density, 313.15 K [kg/m3] | viscosity, 298.15 K [mPa·s] | viscosity, 303.15 K [mPa·s] | viscosity, 308.15 K [mPa·s] | viscosity, 313.15 K [mPa·s]
w2 = 0 | 776.47 | 771.56 | 765.26 | 759.55 | 0.342 | 0.3269 | 0.3092 | 0.2929
w2 = 0.25 | 816.75 | 811.82 | 806.58 | 801.83 | 0.3959 | 0.3598 | 0.3417 | 0.3262
w2 = 0.5 | 856.92 | 852.67 | 847.38 | 842.57 | 0.5214 | 0.46 | 0.434 | 0.4038
w2 = 0.75 | 900.14 | 895.46 | 890.88 | 886.23 | 0.6465 | 0.6145 | 0.5816 | 0.5524

CN(C)C=O [dimethylformamide]
[1]
Settings | mass density [kg/m3] | viscosity [mPa·s]
298.15 K | 944.65 | 0.7986
303.15 K | 940.05 | 0.755
308.15 K | 935.71 | 0.7069
313.15 K | 929.91 | 0.6716

CN(C)C=O [dimethylformamide] + CC#N
[2], w1 = 1
Settings | mass density [kg/m3] | viscosity [mPa·s]
298.15 K | 944.65 | 0.7986
303.15 K | 940.05 | 0.755
308.15 K | 935.71 | 0.7069
313.15 K | 929.91 | 0.6716
